Test results taken from US6299865A, “Reduction of hair growth” (priority 2000, dated 2001).

What was measured:
[1] = tested on: tissue nonspecific form of alkaline phosphatase; settings: several species; cited from earlier work
Human hair follicles = assay: Human hair follicle growth assay; assay type: cell-based; settings: 0.1 mM, control 0.77 ± .09
Description: Human hair follicles in growth phase (anagen) were isolated from face-lift tissue under a dissecting scope using a scalpel and watchmakers forceps. The skin was sliced into thin strips exposing 2-3 rows of follicles that could readily be dissected. Follicles were placed into 0.5 mL Williams E medium (Life Technologies, Gaithersburg, Md.) supplemented with […] L-glutamine, 10 μg/mL insulin, 10 ng/mL hydrocortisone, 100 units penicillin, 0.1 mg/mL streptomycin and 0.25 μg/mL amphotericin B. The follicles were incubated in 24 well plates (1 follicle/well) at 37° C. in an atmosphere of 5% CO2 and 95% air. Hair follicles were video recorded in the 24-well plates under the dissecting scope under a power of 20×. Typically, initial recordings were made on day 0 (day follicles were placed in culture) or day 1, and again on days 7 or 8. Hair follicle lengths were assessed using an image analysis software system (Computer Eyes and NIH Image).

[2] = tested on: tissue-specific form of alkaline phosphatase; settings: stereoselective: only the L-form is active; uncompetitive; cited from earlier work

| Structure (SMILES) | Inhibition of tissue-specific form of alkaline phosphatase [2] | other results |
| --- | --- | --- |
| N=C(N)NCCCC[C@H](N)C(=O)O [L-homoarginine] |  | Inhibition of tissue nonspecific form of alkaline phosphatase [1]: acts as an inhibitor |
| [Na+].[Na+].[Na+].[O]=[V]([O-])([O-])[O-] [Sodium Orthovanadate, sodium orthovanadate] |  | Hair Follicle Length Increase (Day 6-Day 0) (Human hair follicles): 0.32 ± .06 mm |
| CC(C)C[C@H](N)C(=O)O [leucine] | inhibit |  |
| N[C@@H](Cc1ccccc1)C(=O)O [phenylalanine] | inhibit |  |
| N[C@@H](Cc1c[nH]c2ccccc12)C(=O)O [tryptophan] | inhibit |  |
